# Source: patent US10421718B2, “EBNA1 inhibitors and their method of use” (priority 2013, dated 2019)
# Counter-ions that a name gives are not always drawn.
# Target: T1, His-EBNA1 (DNA binding domain of EBNA1, amino acids 459-607) (Epstein-Barr virus, UniProt P03211)
# T1 construct: made in house; host or cells: E. coli
# Test: Inhibition of 5′-biotin-oPL4624 binding to His-EBNA1 using Alpha Screen technology
# Conditions: Alpha Screen Activity (IC50, inhibition of 5′-biotin-oPL4624 binding to His-EBNA1), 15 nM His-EBNA1, 0.2 nM bt-oPL4624, 2 hr room temperature
# How it was run: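 AlphaScreen signal (680 nm ex, 570 nm em) after a 2-h room-temperature incubation, normalized to no-EBNA1 (100% inhibition) and EBNA1 (0%) values and fit to a one-site curve. Final conditions: 15 nM His-EBNA1 (aa 459-607), 0.2 nM bt-oPL4624, Tris pH 7.2 buffer with 160 mM NaCl, compound 3.2 nM to 100 μM.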
# T1 sequence (P03211 459-607): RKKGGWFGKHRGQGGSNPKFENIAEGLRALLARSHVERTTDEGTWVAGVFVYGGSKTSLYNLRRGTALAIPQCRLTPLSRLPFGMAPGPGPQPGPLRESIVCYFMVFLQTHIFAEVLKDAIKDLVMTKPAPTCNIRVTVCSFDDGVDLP
row,SMILES,IC50 [µM]
1,"O=C(O)c1cccc(C#Cc2ccncc2)c1-c1cc(O)cc(F)c1 [Entry 272, 2-(3-fluoro-5-hydroxyphenyl)-3-[2-(pyridin-4-yl)ethynyl]benzoic acid; trifluoroacetate salt]",10 to 100
2,"COc1cc(OC)cc(-c2c(C#Cc3ccncc3)cccc2C(=O)O)c1 [Entry 273, 2-(3,5-dimethoxyphenyl)-3-[2-(pyridin-4-yl)ethynyl]benzoic acid; trifluoroacetate salt]",10 to 100
3,"O=C(O)c1cccc(C#CC(O)c2ccc(F)cc2)c1-c1cccc(O)c1 (centres unmarked) [Entry 274, 3-[3-(4-fluorophenyl)-3-hydroxyprop-1-yn-1-yl]-2-(3-hydroxyphenyl)benzoic acid]",1 to 10
4,"O=C(O)c1cccc(C#Cc2cccc(O)c2)c1-c1ccccc1Oc1ccccc1 [Entry 275, 3-[2-(3-hydroxyphenyl)ethynyl]-2-(2-phenoxyphenyl)benzoic acid]",10 to 100
5,"O=C(O)c1cccc(C#Cc2cccc(O)c2)c1-c1c[nH]c2ccccc12 [Entry 276, 3-[2-(3-hydroxyphenyl)ethynyl]-2-(1H-indol-3-yl)benzoic acid]",10 to 100
6,"COc1cc(OC)cc(-c2c(C#Cc3cccc(O)c3)cccc2C(=O)O)c1 [Entry 277, 2-(3,5-dimethoxyphenyl)-3-[2-(3-hydroxyphenyl)ethynyl]benzoic acid]",10 to 100
7,"NC(=O)c1cccc(C#Cc2cccc(C(=O)O)c2N)c1 [Entry 278, 2-amino-3-[2-(3-carbamoylphenyl)ethynyl]benzoic acid; trifluoroacetate salt]",10 to 100
8,"Nc1c(C#Cc2cccc(C(=O)O)c2)cccc1C(=O)O [Entry 279, 2-amino-3-[2-(3-carboxyphenyl)ethynyl]benzoic acid; trifluoroacetate salt]",10 to 100
9,"C(#Cc1ccc2[nH]ccc2c1)c1cccc(-c2nnn[nH]2)c1 [Entry 280, 5-[3-(1H-tetrazol-5-yl)-phenylethynyl]-1H-indole 5-(3-Ethynyl-phenyl)-1H-tetrazole]",1 to 10
10,"C(#Cc1c[nH]c2ncccc12)c1cccc(-c2nnn[nH]2)c1 [Entry 281, 3-[3-(1H-tetrazol-5-yl)-phenylethynyl]-1H-pyrrolo[2,3-b]pyridine]",10 to 100
11,"C(#Cc1ccc2cc[nH]c2c1)c1cccc(-c2nnn[nH]2)c1 [Entry 282, 6-[3-(1H-tetrazol-5-yl)-phenylethynyl]-1H-indole]",1 to 10
12,"O=S(=O)(c1ccccc1)n1cc(C#Cc2cccc(-c3nnn[nH]3)c2)c2ccccc21 [Entry 283, 1-benzenesulfonyl-3-[3-(1H-tetrazol-5-yl)-phenylethynyl]-1H-indole]",< 1
13,"C(#Cc1c[nH]c2ccccc12)c1cccc(-c2nnn[nH]2)c1 [Entry 284, 3-[3-(1H-tetrazol-5-yl)-phenylethynyl]-1H-indole]",< 1
14,"OCc1ccccc1C#Cc1cccc(-c2nnn[nH]2)c1 [Entry 285, {2-[3-(1H-tetrazol-5-yl)-phenylethynyl]-phenyl}-methanol]",10 to 100
15,"O=C(O)c1cccc(C#Cc2cccc(C(=O)N3CCOCC3)c2)c1 [Entry 286, 3-[3-(morpholine-4-carbonyl)-phenylethynyl]-benzoic acid]",10 to 100
16,"CNC(=O)c1cccc(C#Cc2cccc(C(=O)O)c2)c1 [Entry 287, 3-(3-methylcarbamoyl-phenylethynyl)-benzoic acid]",10 to 100
17,"CN(C)C(=O)c1cccc(C#Cc2cccc(C(=O)O)c2)c1 [Entry 288, 3-(3-dimethylcarbamoyl-phenylethynyl)-benzoic acid]",100 to 1000
18,"CN1CCN(C(=O)c2cccc(C#Cc3cccc(C(=O)O)c3)c2)CC1 [Entry 289, 3-[3-(4-methyl-piperazine-1-carbonyl)-phenylethynyl]-benzoic acid]",100 to 1000
19,"O=C(O)c1cccc(C#Cc2cccc(C(=O)N3CCN(c4ccccc4)CC3)c2)c1 [Entry 290, 3-[3-(4-phenyl-piperazine-1-carbonyl)-phenylethynyl]-benzoic acid]",10 to 100
20,"O=C(O)c1cccc(C#Cc2ccncc2)c1-n1ccc2ccccc21 [Entry 291, 2-indol-1-yl-3-pyridin-4-ylethynyl-benzoic acid]",10 to 100
21,"O=C(O)c1cccc(C#Cc2ccncc2)c1-n1ccnc1 [Entry 292, 2-imidazol-1-yl-3-pyridin-4-ylethynyl-benzoic acid]",100 to 1000
22,"O=C(O)c1cccc(C#Cc2ccncc2)c1-n1cncn1 [Entry 293, 3-pyridin-4-ylethynyl-2-[1,2,4]triazol-1-yl-benzoic acid]",10 to 100
23,"O=C(O)c1cccc(C#Cc2ccccc2)c1-n1ccnc1 [Entry 294, 2-imidazol-1-yl-3-phenylethynyl-benzoic acid]",10 to 100
24,"O=C(O)c1cccc(C#Cc2ccccc2)c1-n1cccn1 [Entry 295, 3-phenylethynyl-2-pyrazol-1-yl-benzoic acid]",100 to 1000
25,"O=C(O)c1cccc(C#Cc2ccccc2)c1-n1cncn1 [Entry 296, 3-phenylethynyl-2-[1,2,4]triazol-1-yl-benzoic acid]",10 to 100
26,"O=C(O)c1cccc(C#Cc2ccccc2)c1-n1cnc2ccccc21 [Entry 297, 2-benzoimidazol-1-yl-3-phenylethynyl-benzoic acid]",10 to 100
27,"O=C(O)c1cccc(C#Cc2ccccc2)c1-n1ncc2ccccc21 [Entry 298, 2-indazol-1-yl-3-phenylethynyl-benzoic acid]",10 to 100
28,"O=C(O)c1cccc(C#Cc2ccccc2)c1-n1ccc2ccccc21 [Entry 299, 2-indol-1-yl-3-phenylethynyl-benzoic acid]",1 to 10
29,"O=C(O)c1cccc(C#Cc2ccncc2)c1-n1cnc2ccccc21 [Entry 300, 2-benzoimidazol-1-yl-3-pyridin-4-ylethynyl-benzoic acid]",10 to 100
